Measured values as given in patent publication EP1034273B1, “HISTAMINE AND SEROTONIN BINDING MOLECULES” (Evolutec Limited, priority 1997, dated 1999).
Where two headings read alike, the source gives them in different places.

Tests used:
[1] = biological target: Av-HBP (SEQ. ID. 6), semi-purified recombinant protein, Amblyomma variegatum; conditions: read-out: equilibrium dissociation constant (Kd) for histamine; results not shown
[2] = biological target: recombinant D.RET6 (SEQ ID 4), Dermacentor reticulatus histamine-binding protein (Dermacentor reticulatus, UniProt Q8WSK7); assay: biochemical
Protocol: (§1) The recombinant D.RET6 was diluted with 1.5% γ-globulin (Sigma) and used in one set of experiments. Fifty microlitres of the protein solution were incubated with 50 µl of 1:2500 dilution of [2,5-^3H] histamine diHCl (1µCi/µl) solution (Amersham) at room temperature for at least 3 hours with or without increasing concentrations of unlabelled histamine. All the assays were carried out in a total volume of 200 µl. The incubations were terminated by adding 125 µl of PEG 8000 (36% w/v in PBS) and centrifuged in a microfuge at maximum speed for 12 minutes to collect the bound protein. The tubes were spun once more to remove all supernatant without disturbing the pellets. Subsequently, pellets were redissolved in PBS. Three millilitres of liquid scintillation cocktail (Beckman) were added and the radioactivity measured using a liquid scintillation counter (Wallac, 1217 Rackbeta).
To study the effect of serotonin on histamine binding activity, 10 µl of PBS (as a control experiment) or 10 µl serotonin (50 µM or 500 µM) were added to each 200 µl binding assay.
For data analysis, the ligand affinity constant was estimated from Scatchard plots as previously described by Hulme, 1992, Receptor-Ligand Interactions, IRL Press, Oxford). The nonlinear regression was used to fit the data (Motulsky, 1987, FASEB J, 1: 365-374) and two asymtotic straight lines were made as described elsewhere (Feldman, 1972, Analytical Biochem 48: 317).

recombinant D.RET6 = biological target: T1, recombinant D.RET6 (Dermacentor reticulatus, UniProt Q8WSK7); assay: Competitive binding assay: unlabelled ligands displacing radioactive histamine from recombinant D.RET6; conditions: graphically derived from competitive binding curve (Figure 15), read-out: IC50 of the unlabelled ligands in displacing the radioactive histamine from the binding site by 50%
T1 sequence (Q8WSK7 18-209): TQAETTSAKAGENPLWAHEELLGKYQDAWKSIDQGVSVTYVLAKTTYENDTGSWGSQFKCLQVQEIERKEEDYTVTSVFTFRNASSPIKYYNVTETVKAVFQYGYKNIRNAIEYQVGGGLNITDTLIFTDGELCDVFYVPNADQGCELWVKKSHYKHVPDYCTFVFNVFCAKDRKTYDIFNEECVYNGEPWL
Protocol: as §1
In a second set of experiments, a competitive binding assay was used to compare three unlabelled competitor ligands (histamine, 1-methylhistamine and 3-methylhistamine).

NCCc1c[nH]cn1 [histamine]
Kd [1]: ~0.0073 µM | Kd ([2]; Kd, first (higher affinity) histamine binding site, final concentration of 2.38µM serotonin): 0.0011 µM | Kd ([2]; Kd, first (higher affinity) histamine binding site, no serotonin, approximate, from asymptotic lines of Scatchard plot): ~0.06 µM | Kd ([2]; Kd, first (higher affinity) histamine binding site, with 23.8µM serotonin): 0.0013 µM | increase of binding affinity of D.RET6 for histamine ([2]; in the presence of serotonin versus no serotonin): sixty-fold | Kd ([2]; read-out: Kd, second (lower affinity) histamine binding site, final concentration of 2.38µM serotonin): 1 µM | Kd ([2]; read-out: Kd, second (lower affinity) histamine binding site, no serotonin, approximate, from asymptotic lines of Scatchard plot): ~2 µM | Kd ([2]; read-out: Kd, second (lower affinity) histamine binding site, with 23.8µM serotonin): 1 µM | IC50 (recombinant D.RET6): 0.133 µM
